In the NIST ThermoML archive (doi:10.1021/je500696p):
Numbers after ± are expanded uncertainties.

Assays:
[1] = xn = mol fraction of the nth substance listed; settings: 100 kPa, Liquid, Vibrating tube method, x1 = 1
[2] = excess molar enthalpy (molar enthalpy of mixing); xn = mol fraction of the nth substance listed; settings: 308.15 K, 100 kPa, Liquid, Calvet calorimetry

Row | Structure (SMILES) | mass density ([1]; 293.15 K) | mass density ([1]; 295.15 K) | mass density ([1]; 298.15 K) | mass density ([1]; 303.15 K) | mass density ([1]; 308.15 K) | mass density ([1]; 313.15 K) | mass density ([1]; 318.15 K) | mass density ([1]; 323.15 K) | mass density ([1]; 328.15 K) | mass density ([1]; 333.15 K) | other results
1 | CCCO [propan-1-ol] + CCCC[N+](C)(C)C.O=S(=O)([N-]S(=O)(=O)C(F)(F)F)C(F)(F)F | 803.6 ± 2.4 kg/m3 | 802.1 ± 2.4 kg/m3 | 799.7 ± 2.4 kg/m3 | 795.6 ± 2.4 kg/m3 | 791.6 ± 2.4 kg/m3 | 787.5 ± 2.4 kg/m3 | 783.4 ± 2.4 kg/m3 | 779.2 ± 2.3 kg/m3 | 774.9 ± 2.3 kg/m3 | 770.6 ± 2.3 kg/m3 | –
2 | CCCC[N+](C)(C)C.O=S(=O)([N-]S(=O)(=O)C(F)(F)F)C(F)(F)F [butyltrimethylammonium bis(trifluoromethylsulfonyl)imide] + C[S+](C)[O-] | – | – | – | – | – | – | – | – | – | – | excess molar enthalpy ([2]; x2 = 0.1288): -0.027 ± 0.00717 kcal/mol; excess molar enthalpy ([2]; x2 = 0.2255): -0.0416 ± 0.00717 kcal/mol; excess molar enthalpy ([2]; x2 = 0.2609): -0.0459 ± 0.00717 kcal/mol; excess molar enthalpy ([2]; x2 = 0.3095): -0.0511 ± 0.00717 kcal/mol; excess molar enthalpy ([2]; x2 = 0.3626): -0.0593 ± 0.00717 kcal/mol; excess molar enthalpy ([2]; x2 = 0.4382): -0.0629 ± 0.00717 kcal/mol; excess molar enthalpy ([2]; x2 = 0.4941): -0.0667 ± 0.00717 kcal/mol; excess molar enthalpy ([2]; x2 = 0.4983): -0.0638 ± 0.00717 kcal/mol; excess molar enthalpy ([2]; x2 = 0.5007): -0.0643 ± 0.00717 kcal/mol; excess molar enthalpy ([2]; x2 = 0.559): -0.0684 ± 0.00717 kcal/mol; excess molar enthalpy ([2]; x2 = 0.5642): -0.0679 ± 0.00717 kcal/mol; excess molar enthalpy ([2]; x2 = 0.5646): -0.0691 ± 0.00717 kcal/mol; excess molar enthalpy ([2]; x2 = 0.6132): -0.0629 ± 0.00717 kcal/mol; excess molar enthalpy ([2]; x2 = 0.6267): -0.0619 ± 0.00717 kcal/mol; excess molar enthalpy ([2]; x2 = 0.7533): -0.0399 ± 0.00717 kcal/mol; excess molar enthalpy ([2]; x2 = 0.7693): -0.037 ± 0.00717 kcal/mol; excess molar enthalpy ([2]; x2 = 0.8684): -0.0155 ± 0.00717 kcal/mol
3 | CN(C)C=O [dimethylformamide] + CCCC[N+](C)(C)C.O=S(=O)([N-]S(=O)(=O)C(F)(F)F)C(F)(F)F | 948.7 ± 2.8 kg/m3 | 946.8 ± 2.8 kg/m3 | 943.9 ± 2.8 kg/m3 | 939.1 ± 2.8 kg/m3 | 934.4 ± 2.8 kg/m3 | 929.6 ± 2.8 kg/m3 | 924.8 ± 2.8 kg/m3 | 920 ± 2.8 kg/m3 | 915.2 ± 2.7 kg/m3 | 910.4 ± 2.7 kg/m3 | –
4 | CCO [ethanol] + CCCC[N+](C)(C)C.O=S(=O)([N-]S(=O)(=O)C(F)(F)F)C(F)(F)F | 789.6 ± 3.2 kg/m3 | 787.9 ± 3.2 kg/m3 | 785.3 ± 3.1 kg/m3 | 781 ± 3.1 kg/m3 | 776.7 ± 3.1 kg/m3 | 772.3 ± 3.1 kg/m3 | 767.9 ± 3.1 kg/m3 | 763.5 ± 3.1 kg/m3 | 758.9 ± 3 kg/m3 | 754.4 ± 3 kg/m3 | –
